Values quoted from earlier work as cited in US20220009914A1, “Analogs of Nitrofuran Antibiotics to Combat Resistance” (The Trustees of Indiana University, priority 2020, published 2022).
Read-outs that look alike come from different tables or passages of the source.

Columns and labels:
[1] = target: T1, E. coli GroEL/ES (Escherichia coli, UniProt P0A6F5); details: read-out: IC50 GroEL/ES-mediated refolding of denatured rhodanese; previously found; cited from earlier work
T1 construct: made in house; host or cells: GroEL in NEB 5-alpha E. coli; GroES in E. coli BL21 (DE3)
T1 sequence (P0A6F5 2-548): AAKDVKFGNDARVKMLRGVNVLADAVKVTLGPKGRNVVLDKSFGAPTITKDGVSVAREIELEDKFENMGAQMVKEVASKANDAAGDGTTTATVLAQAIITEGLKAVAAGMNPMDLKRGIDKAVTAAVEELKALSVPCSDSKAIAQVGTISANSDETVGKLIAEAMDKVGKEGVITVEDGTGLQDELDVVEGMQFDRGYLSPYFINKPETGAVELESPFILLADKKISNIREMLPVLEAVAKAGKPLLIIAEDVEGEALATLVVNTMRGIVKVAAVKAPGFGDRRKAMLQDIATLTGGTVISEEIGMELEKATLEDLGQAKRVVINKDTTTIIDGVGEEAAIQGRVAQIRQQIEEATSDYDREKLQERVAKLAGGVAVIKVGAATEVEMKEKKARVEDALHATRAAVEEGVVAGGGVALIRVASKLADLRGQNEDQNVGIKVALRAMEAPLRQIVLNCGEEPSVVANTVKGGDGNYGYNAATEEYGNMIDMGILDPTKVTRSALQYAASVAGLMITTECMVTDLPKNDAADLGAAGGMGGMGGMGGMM

[2] = tested on: methicillin-resistant S. aureus; details: previously found; read-out: EC50 proliferation of methicillin-resistant S. aureus; cited from earlier work
[3] = target: T1, E. coli GroEL/ES; details: read-out: IC50 GroEL/ES-mediated refolding of denatured malate dehydrogenase; previously found; cited from earlier work

Structure (SMILES): COc1ccc(C(=O)N/N=C/c2ccc(O)c3ncccc23)cc1 [Compound 1, N′-((8-hydroxyquinolin-5-yl)methylene)-4-methoxybenzohydrazide]
- IC50 [1]: 18 µM
- EC50 [2]: 56 µM
- IC50 [3]: 31 µM
